Results reported in the supplement of paper PMC9663587.

Assays:
Assay in all cases: increase in dead-cell fraction, 72 h; higher = more death;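 note: breast cancer cell lines in 384-well plates, stained with Hoechst plus LIVE/DEAD far red dye and imaged, cells above an LDR intensity threshold counted dead, Hoechst-negative corpses included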
[1] = compound: CC(C)NC[C@@H](C(=O)N1CCN(c2ncnc3c2[C@H](C)C[C@H]3O)CC1)c1ccc(Cl)cc1 [Ipatasertib/GDC0068]
[2] = compound: C=CCn1c(=O)c2cnc(Nc3ccc(N4CCN(C)CC4)cc3)nc2n1-c1cccc(C(C)(C)O)n1 [AZD1775]
[3] = compound: C1=CC(=CC(=C1)N2C(=O)C=CC3=CN=C4C=CC(=CC4=C32)C5=CN=C(C=C5)N)C(F)(F)F [Torin2]
[4] = compound: CN(C)C/C=C/C(=O)NC1=CC=C(C=C1)C(=O)NC2=CC=CC(=C2)NC3=NC=NC(=C3)C4=CNC5=CC=CC=C54 [THZ-P1-2]
[5] = compound: CO[C@@H](C)Cn1c(=O)n(C)c2cnc3ccc(-c4cncc(C(C)(C)O)c4)cc3c21
[6] = compound: O=C(CCCCCCC(=O)Nc1ccccc1)NO [Vorinostat]
[7] = compound: CNc1nc(-c2ccc3c(N)n[nH]c3c2)cc(N2C[C@@H](C(=O)NC3CCCCC3)CC[C@H]2C)n1
[8] = compound: CCNC(=O)c1noc(-c2cc(C(C)C)c(O)cc2O)c1-c1ccc(CN2CCOCC2)cc1 [Luminespib/NVP-AUY922]
[9] = compound: CN(C)CC[C@H](CSc1ccccc1)Nc1ccc(S(=O)(=O)NC(=O)c2ccc(N3CCN(Cc4ccccc4-c4ccc(Cl)cc4)CC3)cc2)cc1[N+](=O)[O-] [ABT-737]
[10] = compound: CS(=O)(=O)N1CCN(Cc2cc3nc(-c4cccc5[nH]ncc45)nc(N4CCOCC4)c3s2)CC1 [Pictilisib/GDC0941]
[11] = compound: CC(C)n1nc(-c2ccc3oc(N)nc3c2)c2c(N)ncnc21 [INK128/MLN0128]
[12] = compound: CN1CCN(CC1)C2=CC(=C(C=C2)NC3=NC=C4C(=N3)N(C5=CC=CC=C5C(=O)N4CC(F)(F)F)C)OC [FMF-03-146-1]

Cell Line: AU565
- increase in dead-cell fraction ([1]; 0.001 µM): 0.0001
- increase in dead-cell fraction ([1]; 0.003162 µM): 0.0023
- increase in dead-cell fraction ([1]; 0.01 µM): -0.0023
- increase in dead-cell fraction ([1]; 0.03162 µM): -0.0006
- increase in dead-cell fraction ([1]; 0.1 µM): 0.0018
- increase in dead-cell fraction ([1]; 0.3162 µM): 0.0082
- increase in dead-cell fraction ([1]; 1 µM): 0.0032
- increase in dead-cell fraction ([1]; 3.162 µM): 0.0084
- increase in dead-cell fraction ([1]; 10 µM): 0.0293
- increase in dead-cell fraction ([2]; 0.001 µM): 0.0224
- increase in dead-cell fraction ([2]; 0.003162 µM): 0.0098
- increase in dead-cell fraction ([2]; 0.01 µM): 0.0075
- increase in dead-cell fraction ([2]; 0.03162 µM): 0.029
- increase in dead-cell fraction ([2]; 0.1 µM): 0.0256
- increase in dead-cell fraction ([2]; 0.3162 µM): 0.0481
- increase in dead-cell fraction ([2]; 1 µM): 0.119
- increase in dead-cell fraction ([2]; 3.162 µM): 0.184
- increase in dead-cell fraction ([2]; 10 µM): 0.472
- increase in dead-cell fraction ([3]; 0.0001 µM): 0.0019
- increase in dead-cell fraction ([3]; 0.0003162 µM): 0.0033
- increase in dead-cell fraction ([3]; 0.001 µM): 0.0025
- increase in dead-cell fraction ([3]; 0.003162 µM): 0.0127
- increase in dead-cell fraction ([3]; 0.01 µM): 0.032
- increase in dead-cell fraction ([3]; 0.03162 µM): 0.0466
- increase in dead-cell fraction ([3]; 0.1 µM): 0.0874
- increase in dead-cell fraction ([3]; 0.3162 µM): 0.0982
- increase in dead-cell fraction ([3]; 1 µM): 0.121
- increase in dead-cell fraction ([4]; 0.01 µM): -0.0013
- increase in dead-cell fraction ([4]; 0.03162 µM): -0.0105
- increase in dead-cell fraction ([4]; 0.1 µM): 0.0091
- increase in dead-cell fraction ([4]; 0.3162 µM): -0.0029
- increase in dead-cell fraction ([4]; 1 µM): -0.0001
- increase in dead-cell fraction ([4]; 3.162 µM): -0.0022
- increase in dead-cell fraction ([4]; 10 µM): 0.569
- increase in dead-cell fraction ([5]; 0.001 µM): 0.0299
- increase in dead-cell fraction ([5]; 0.003162 µM): 0.0425
- increase in dead-cell fraction ([5]; 0.01 µM): 0.0372
- increase in dead-cell fraction ([5]; 0.03162 µM): 0.0503
- increase in dead-cell fraction ([5]; 0.1 µM): 0.0586
- increase in dead-cell fraction ([5]; 0.3162 µM): 0.0998
- increase in dead-cell fraction ([5]; 1 µM): 0.074
- increase in dead-cell fraction ([5]; 3.162 µM): 0.091
- increase in dead-cell fraction ([5]; 10 µM): 0.511
- increase in dead-cell fraction ([6]; 0.001 µM): -0.0016
- increase in dead-cell fraction ([6]; 0.003162 µM): 0.0067
- increase in dead-cell fraction ([6]; 0.01 µM): 0.0043
- increase in dead-cell fraction ([6]; 0.03162 µM): 0.0012
- increase in dead-cell fraction ([6]; 0.1 µM): 0.0011
- increase in dead-cell fraction ([6]; 0.3162 µM): -0.0009
- increase in dead-cell fraction ([6]; 1 µM): 0.0099
- increase in dead-cell fraction ([6]; 3.162 µM): 0.142
- increase in dead-cell fraction ([6]; 10 µM): 0.241
- increase in dead-cell fraction ([7]; 0.001 µM): -0.0175
- increase in dead-cell fraction ([7]; 0.003162 µM): 0.001
- increase in dead-cell fraction ([7]; 0.01 µM): 0.0046
- increase in dead-cell fraction ([7]; 0.03162 µM): 0.0008
- increase in dead-cell fraction ([7]; 0.1 µM): 0.0065
- increase in dead-cell fraction ([7]; 0.3162 µM): 0.0014
- increase in dead-cell fraction ([7]; 1 µM): 0.0253
- increase in dead-cell fraction ([7]; 3.162 µM): 0.0252
- increase in dead-cell fraction ([7]; 10 µM): 0.0432
- increase in dead-cell fraction ([8]; 0.0001 µM): -0.0018
- increase in dead-cell fraction ([8]; 0.0003162 µM): -0.0005
- increase in dead-cell fraction ([8]; 0.001 µM): -0.0013
- increase in dead-cell fraction ([8]; 0.003162 µM): 0.0017
- increase in dead-cell fraction ([8]; 0.01 µM): 0.0215
- increase in dead-cell fraction ([8]; 0.03162 µM): 0.03
- increase in dead-cell fraction ([8]; 0.1 µM): 0.0462
- increase in dead-cell fraction ([8]; 0.3162 µM): 0.0389
- increase in dead-cell fraction ([8]; 1 µM): 0.0492
- increase in dead-cell fraction ([9]; 0.001 µM): 0.0066
- increase in dead-cell fraction ([9]; 0.003162 µM): 0.0005
- increase in dead-cell fraction ([9]; 0.01 µM): 0.0025
- increase in dead-cell fraction ([9]; 0.03162 µM): -0.0006
- increase in dead-cell fraction ([9]; 0.1 µM): 0.0014
- increase in dead-cell fraction ([9]; 0.3162 µM): 0.0008
- increase in dead-cell fraction ([9]; 1 µM): 0.0066
- increase in dead-cell fraction ([9]; 3.162 µM): 0.0073
- increase in dead-cell fraction ([9]; 10 µM): 0.0507
- increase in dead-cell fraction ([10]; 0.001 µM): 0.0052
- increase in dead-cell fraction ([10]; 0.003162 µM): 0.007
- increase in dead-cell fraction ([10]; 0.01 µM): 0.0001
- increase in dead-cell fraction ([10]; 0.03162 µM): 0.0063
- increase in dead-cell fraction ([10]; 0.1 µM): 0.0196
- increase in dead-cell fraction ([10]; 0.3162 µM): 0.0368
- increase in dead-cell fraction ([10]; 1 µM): 0.0866
- increase in dead-cell fraction ([10]; 3.162 µM): 0.126
- increase in dead-cell fraction ([10]; 10 µM): 0.19
- increase in dead-cell fraction ([11]; 0.0003162 µM): 0.0039
- increase in dead-cell fraction ([11]; 0.001 µM): 0.0034
- increase in dead-cell fraction ([11]; 0.003162 µM): 0.0155
- increase in dead-cell fraction ([11]; 0.01 µM): 0.0233
- increase in dead-cell fraction ([11]; 0.03162 µM): 0.0367
- increase in dead-cell fraction ([11]; 0.1 µM): 0.0543
- increase in dead-cell fraction ([11]; 0.3162 µM): 0.0671
- increase in dead-cell fraction ([11]; 1 µM): 0.084
- increase in dead-cell fraction ([11]; 3.162 µM): 0.244
- increase in dead-cell fraction ([12]; 0.001 µM): -0.0004
- increase in dead-cell fraction ([12]; 0.003162 µM): -0.0059
- increase in dead-cell fraction ([12]; 0.01 µM): -0.0077
- increase in dead-cell fraction ([12]; 0.03162 µM): -0.0019
- increase in dead-cell fraction ([12]; 0.1 µM): -0.007
- increase in dead-cell fraction ([12]; 0.3162 µM): 0.0094
- increase in dead-cell fraction ([12]; 1 µM): 0.0124
- increase in dead-cell fraction ([12]; 3.162 µM): -0.0094
- increase in dead-cell fraction ([12]; 10 µM): 0.0136
